Laboratory results from patent US6545131B1, “Tissue specific prodrug” (priority 1997, dated 2003).
Starred links: 1 amine or outer side, 2 acyl side, 3 side chain; linkers in the order of their positions; H or OH if unused. Residues, ends and D or L forms follow the SMILES beside them. *: point of attachment. Mu = morpholinocarbonyl, O=C(N1CCOCC1)*; AMC = Cc1cc(=O)oc2cc(N*)ccc12; Morpholide = C1CN(*)CCO1; CO = O=C([*:1])[*:2]; Dox = doxorubicin

What was measured:
TSU-Pr1 cells = assay: Clonogenic survival of TSU-Pr1 cells after 48 hr exposure to doxorubicin prodrugs with or without exogenously added PSA; assay type: cell-based, human; details: 50 μM prodrug
Description: The androgen responsive PSA-producing LNCaP and androgen independent PSA non-producing TSU-Pr1 are human prostate cancer lines were obtained from ATCC (Rockville, Md.) and maintained by serial passage in RPMI 1640 media containing 10% fetal calf serum with 100 units/ml penicillin G, and 100 units/ml streptomycin sulfate (antibiotics from M.A. Bioproducts, Walkerville, Md.) as standard media in 5% CO2/95% air at 37° C. The origins and characteristics of the LNCaP and TSU-Pr1 cell lines are described in Horoszewicz, et al., Cancer Res., 43:1809-1818, (1980)and Iizumi, et al., J. Urol, 137: 1304-1306, (1987).
Percentage clonogenic survival of TSU-Pr1 (2×10^5 cells) following 48 hr. exposure to varying concentrations of doxorubicin prodrugs with or without exogenously added PSA was performed as described in Martikainen et al., Cancer Res., 51:4693-4700, (1991).
Results for Mu-His-Ser-Ser-Lys-Leu-Gln-doxorubicin (SEQ ID NO:16) at 50 μM, were 122 colonies for treatment without PSA, and 110 colonies for treatment with 30 μg/ml enzymatically active PSA. Results are shown as averages (n=5) with standard error of 2 to 7. Assays were done in triplicate.

[1] = biological target: T1, PSA (prostate specific antigen) (Homo sapiens, UniProt P07288); assay: Cleavage of AMC-labelled peptide substrates by purified PSA (fluorescence of released AMC; Lineweaver-Burke kinetics); assay type: biochemical
T1 construct: PSA was purified from human seminal plasma; from tissue; host or cells: human seminal plasma
T1 sequence (P07288 25-261): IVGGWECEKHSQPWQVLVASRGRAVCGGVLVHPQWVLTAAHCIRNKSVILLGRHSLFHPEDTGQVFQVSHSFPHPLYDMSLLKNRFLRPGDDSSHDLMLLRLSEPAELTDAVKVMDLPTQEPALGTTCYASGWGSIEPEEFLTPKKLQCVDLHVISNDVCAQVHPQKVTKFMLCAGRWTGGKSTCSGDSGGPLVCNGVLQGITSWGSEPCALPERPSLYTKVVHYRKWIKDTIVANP

thrombin = biological target: T2, thrombin (Homo sapiens, UniProt P00734); assay: Peptide-AMC cleavage by purified extracellular protease; assay type: biochemical; details: 0.2 mM substrate, PSA assay buffer pH 7.8
T2 construct: purchased Sigma Chemical Co

Trypsin = assay: as above; assay type: biochemical; details: 0.2 mM substrate, PSA assay buffer pH 7.8
human kallikrein, hK1 = assay: as above; assay type: biochemical; details: 0.2 mM substrate, PSA assay buffer pH 7.8
Elastase = assay: as above; assay type: biochemical; details: 0.2 mM substrate, PSA assay buffer pH 7.8
[2] = biological target: T3, tissue plasminogen activator (TPA) (Homo sapiens, UniProt P00750); assay: as above; assay type: biochemical; details: 0.2 mM substrate, PSA assay buffer pH 7.8
T3 construct: purchased Calbiochem
T3 sequence (P00750 36-562, species assumed): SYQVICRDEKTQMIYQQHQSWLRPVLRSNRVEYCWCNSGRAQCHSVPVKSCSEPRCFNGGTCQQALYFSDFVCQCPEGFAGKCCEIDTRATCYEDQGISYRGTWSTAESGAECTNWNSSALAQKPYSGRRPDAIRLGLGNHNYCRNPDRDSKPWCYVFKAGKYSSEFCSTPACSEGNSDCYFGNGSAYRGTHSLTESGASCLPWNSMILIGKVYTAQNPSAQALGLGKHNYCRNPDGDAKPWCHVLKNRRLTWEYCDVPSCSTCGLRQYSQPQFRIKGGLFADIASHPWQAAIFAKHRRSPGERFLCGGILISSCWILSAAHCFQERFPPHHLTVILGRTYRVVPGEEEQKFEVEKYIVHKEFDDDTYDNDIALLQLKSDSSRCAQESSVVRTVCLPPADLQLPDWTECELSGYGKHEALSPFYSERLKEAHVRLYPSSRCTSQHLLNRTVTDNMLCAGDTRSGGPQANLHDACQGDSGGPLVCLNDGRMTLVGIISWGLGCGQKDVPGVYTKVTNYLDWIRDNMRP

Plasmin = biological target: T4, Plasmin (Homo sapiens, UniProt P00747); assay: as above; assay type: biochemical; details: 0.2 mM substrate, PSA assay buffer pH 7.8
T4 construct: purchased Calbiochem
T4 sequence (P00747 581-810 limits assumed, species assumed): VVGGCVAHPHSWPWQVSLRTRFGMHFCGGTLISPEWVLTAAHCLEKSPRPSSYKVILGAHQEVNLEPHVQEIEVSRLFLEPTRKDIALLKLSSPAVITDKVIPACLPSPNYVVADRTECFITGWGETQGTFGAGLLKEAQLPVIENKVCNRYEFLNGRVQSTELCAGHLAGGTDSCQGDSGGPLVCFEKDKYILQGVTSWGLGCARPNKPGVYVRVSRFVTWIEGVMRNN
T4 sequence (P00747 97-580 partner limits assumed, species assumed): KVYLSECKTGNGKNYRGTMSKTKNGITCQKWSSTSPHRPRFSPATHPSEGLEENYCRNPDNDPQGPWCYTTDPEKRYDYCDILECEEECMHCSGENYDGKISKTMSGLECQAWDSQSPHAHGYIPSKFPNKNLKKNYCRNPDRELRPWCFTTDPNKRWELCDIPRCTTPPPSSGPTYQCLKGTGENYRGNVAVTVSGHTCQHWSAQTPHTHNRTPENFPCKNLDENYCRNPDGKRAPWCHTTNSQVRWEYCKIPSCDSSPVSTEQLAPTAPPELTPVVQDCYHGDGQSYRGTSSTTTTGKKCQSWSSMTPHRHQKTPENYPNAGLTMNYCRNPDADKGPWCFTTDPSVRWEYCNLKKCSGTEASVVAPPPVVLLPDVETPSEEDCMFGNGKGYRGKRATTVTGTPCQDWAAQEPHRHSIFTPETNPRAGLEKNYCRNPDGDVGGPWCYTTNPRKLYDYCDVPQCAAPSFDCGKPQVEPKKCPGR

urokinase = biological target: T5, urokinase (Homo sapiens, UniProt P00749); assay: as above; assay type: biochemical; details: 0.2 mM substrate, PSA assay buffer pH 7.8
T5 construct: purchased Calbiochem

chymotrypsin = biological target: T6, chymotrypsin (Bos taurus, UniProt P00766); assay: as above; assay type: biochemical; details: 0.2 mM substrate, PSA assay buffer pH 7.8
T6 construct: purchased Sigma Chemical Co

[3] = Stability of PSA substrates in serum (AMC release); assay type: in vitro ADME; details: 0.2 mM substrate
Cathepsin B = biological target: T7, Cathepsin B (Homo sapiens, UniProt P07858); assay: PSA substrate cleavage by purified intracellular protease; assay type: biochemical; details: 0.2 mM substrate, pH 7.8; SKLQ, KLQ, LQ in 1.4% acetonitrile/buffer, Q-AMC in 0.2% formic acid/buffer
T7 construct: purchased Sigma Chemical Co
Description: (§1) Cleavage was studied by measuring fluorescence change secondary to AMC release. Fluorescence detection was carried out with a Fluoroskan II 96 well fluorometric plate reader (ICN Biomedicals, Costa Mesa, Calif.), with excitation wavelength 355 nm and emission wavelength 460 nm. Data were collected and analyzed using Deltasoft III software (Biometallics, Princeton, N.J.). All reactions were performed at room temperature by the addition of substrate and proteases into PSA buffer, described below, in a final volume of 200 μL. The results were determined from the initial linear increase of fluorescence and were expressed as the picomoles of AMC released per minute based upon comparison to a standard curve of the fluorescence of known amounts of AMC (i.e., fluorescence was linear form 20 to 300 picomoles of AMC). The data were analyzed by Lineweaver-Burke reciprocal plots to determine the Michaelis-Menten constant (i.e., Km) expressed as the amount of substrate needed to saturate half of the enzyme and the catalytic rate constant (i.e., kcat) expressed as the amount of substrate converted to product per time per amount of enzyme.
(§2) A family of peptide substrates based upon the EHSSKLQ (SEQ ID NO:10) sequence was assayed for activity for the intracellular proteases, and the results given in Table 4.
(§3) The amino acid sequences expressed in one letter amino acid code represent the following amino acid sequences in the three letter amino acid code: EHSSKLQ (Glu-His-Ser-Ser-Lys-Leu-Gln; SEQ ID NO:10), The shorter sequences are formed by deleting amino acids from the amino terminal side of the sequence. Determinations listed in the table were carried out with substrates at 0.2 mM concentration in the PSA assay buffer (50 mM Tris/0.1M NaCl pH 7.8), except SKLQ (SEQ ID NO:1), KLQ and LQ, which were carried out in 1.4% acetonitrile/buffer and Q-AMC which was carried out in 0.2% formic acid/buffer, at pH 7.8. The entry “UD” stands for “undetectable” and means that at most, 0.1 pmole of substrate cleavage per minute per 200 pmole protease took place. Asterisks represent experiments not performed. Abbreviations are as follows: PSA (prostate specific antigen), Cath B, C, D (Cathepsins, B, C, D), Esterase (porcine liver esterase).

Cathepsin D = biological target: T8, Cathepsin D (Homo sapiens, UniProt P07339); assay: as above; assay type: biochemical; details: 0.2 mM substrate, pH 7.8; SKLQ, KLQ, LQ in 1.4% acetonitrile/buffer, Q-AMC in 0.2% formic acid/buffer
T8 construct: purchased Sigma Chemical Co
T8 sequence (P07339 65-412): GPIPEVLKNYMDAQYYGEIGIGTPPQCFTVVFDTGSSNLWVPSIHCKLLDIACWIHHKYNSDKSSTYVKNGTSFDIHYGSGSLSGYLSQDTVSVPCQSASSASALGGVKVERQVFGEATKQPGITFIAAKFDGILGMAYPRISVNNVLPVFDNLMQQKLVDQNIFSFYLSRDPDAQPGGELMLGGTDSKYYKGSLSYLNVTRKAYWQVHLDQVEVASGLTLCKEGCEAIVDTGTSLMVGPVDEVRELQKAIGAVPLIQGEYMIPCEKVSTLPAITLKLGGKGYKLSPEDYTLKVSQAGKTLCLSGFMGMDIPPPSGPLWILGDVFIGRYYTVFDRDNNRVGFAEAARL
Description: as §1, §2, §3

Cathepsin C = biological target: T9, Cathepsin C (Homo sapiens, UniProt P53634); assay: as above; assay type: biochemical; details: 0.2 mM substrate, pH 7.8; SKLQ, KLQ, LQ in 1.4% acetonitrile/buffer, Q-AMC in 0.2% formic acid/buffer
T9 construct: purchased Sigma Chemical Co
T9 sequence (P53634 25-463): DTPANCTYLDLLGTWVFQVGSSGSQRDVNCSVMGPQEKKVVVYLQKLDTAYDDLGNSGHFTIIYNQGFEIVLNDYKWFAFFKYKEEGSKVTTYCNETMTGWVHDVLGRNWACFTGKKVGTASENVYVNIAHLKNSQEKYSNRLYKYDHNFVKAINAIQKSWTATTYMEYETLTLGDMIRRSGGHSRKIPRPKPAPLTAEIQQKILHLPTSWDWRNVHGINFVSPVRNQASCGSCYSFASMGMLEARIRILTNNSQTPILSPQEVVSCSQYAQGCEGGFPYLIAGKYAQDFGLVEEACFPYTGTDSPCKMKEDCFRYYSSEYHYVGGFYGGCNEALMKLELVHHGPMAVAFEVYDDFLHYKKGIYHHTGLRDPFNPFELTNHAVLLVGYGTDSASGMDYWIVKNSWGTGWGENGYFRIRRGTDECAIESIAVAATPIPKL
Description: as §1, §2, §3

porcine liver esterase = assay: as above; assay type: biochemical; details: 0.2 mM substrate, pH 7.8; SKLQ, KLQ, LQ in 1.4% acetonitrile/buffer, Q-AMC in 0.2% formic acid/buffer
Description: as §1, §2, §3

[4] = Cytotoxic activity (LD50) of thapsigargin and debutanoyl derivative; assay type: cell-based
Description: The starting material for all the synthesized analogs is 8-O-debutanoylthapsigargin, which is easily available by triethylamine catalyzed methanolysis of thapsigargin. Removal of the butanoyl results in loss of cytotoxic activity with an LD50 of >50 μM compared to <100 nM for thapsigargin. Anhydrides of dicarboxylic acids of various lengths afforded analogs in which the acyl group attached to the O-8 ended in a free carboxylic acid. A dicyclohexylcarbodiimide (DCCI) promoted coupling of a 2,4-diaminoarene to the carboxylic acid analogs affords the derivatives in which contain a primary aromatic amine as a potential coupling point for additional moeities.

[5] = cited from earlier work
[6] = Clonogenic survival of TSU-Pr1 cells after 72 hours exposure to TG analogs; assay type: cell-based, human; details: human; TSU-Pr1, 72 hours exposure; mean (n=5) ± standard error; read-out: LC50 (concentration needed to kill 50% of clonogenic cells)
Summary of the method: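 Androgen-independent human prostate cancer TSU-Pr1 cells (2×10^5) were exposed for 72 h to varying thapsigargin analog concentrations, and clonogenic survival was then assessed. LC50 is the concentration killing 50% of clonogenic cells, reported as mean of n=5 ± SE.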

[7] = biological target: T10, endoplasmic reticulum Ca2+-ATPase (SERCA), SR vesicles from rabbit skeletal muscle (Oryctolagus cuniculus, UniProt P04191); assay: SERCA inhibition: 45Ca2+ uptake to sarcoplasmic reticulum vesicles; assay type: biochemical; details: mean (n=3) ± standard error; 5 μg/ml SR protein, free Ca2+ 100 nM, 4 min uptake; read-out: IC50 (50% inhibition of 45Ca2+ uptake to SR vesicles)
T10 construct: sarcoplasmic reticulum (SR) vesicles prepared from rabbit skeletal muscle; from tissue; host or cells: rabbit skeletal muscle sarcoplasmic reticulum vesicles
T10 sequence (P04191 1-994 isoform P04191-2): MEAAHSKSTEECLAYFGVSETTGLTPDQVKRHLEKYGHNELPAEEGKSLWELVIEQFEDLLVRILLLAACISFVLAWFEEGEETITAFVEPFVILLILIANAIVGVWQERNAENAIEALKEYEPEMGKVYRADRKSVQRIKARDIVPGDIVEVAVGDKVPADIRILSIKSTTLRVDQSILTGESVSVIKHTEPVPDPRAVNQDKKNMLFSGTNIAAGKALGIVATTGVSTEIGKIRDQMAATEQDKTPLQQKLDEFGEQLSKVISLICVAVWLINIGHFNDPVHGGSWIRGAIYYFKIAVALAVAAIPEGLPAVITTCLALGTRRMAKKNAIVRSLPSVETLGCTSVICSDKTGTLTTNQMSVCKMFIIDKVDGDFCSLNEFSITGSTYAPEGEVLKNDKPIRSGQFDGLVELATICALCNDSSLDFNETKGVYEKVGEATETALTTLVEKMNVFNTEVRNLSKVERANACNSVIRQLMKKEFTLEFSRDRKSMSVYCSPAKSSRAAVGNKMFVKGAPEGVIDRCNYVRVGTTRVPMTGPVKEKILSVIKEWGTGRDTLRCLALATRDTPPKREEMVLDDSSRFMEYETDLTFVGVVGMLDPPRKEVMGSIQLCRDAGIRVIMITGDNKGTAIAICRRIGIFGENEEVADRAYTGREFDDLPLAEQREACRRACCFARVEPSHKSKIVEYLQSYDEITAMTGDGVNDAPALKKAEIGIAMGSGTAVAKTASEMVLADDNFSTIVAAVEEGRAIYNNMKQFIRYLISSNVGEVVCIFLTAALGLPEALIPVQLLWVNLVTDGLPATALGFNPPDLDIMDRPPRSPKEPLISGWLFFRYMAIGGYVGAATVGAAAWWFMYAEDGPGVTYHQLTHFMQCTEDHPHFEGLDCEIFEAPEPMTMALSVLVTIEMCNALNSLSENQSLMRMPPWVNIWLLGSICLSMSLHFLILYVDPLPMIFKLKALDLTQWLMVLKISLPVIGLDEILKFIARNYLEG
Description: The primary amine-containing thapsigargin analogs of the invention have endoplasmic reticulum Ca^2+-ATPase inhibitory activity. This activity is measured as the concentration of analog needed to inhibit 50% of this ATPase (IC50). The IC50 of the analogs of the invention is desirably at most 500 nM, preferably at most 200 nM, and more preferably at most 50 nM of analog.
The inhibitory potency of thapsigargin and its analogs was determined as the concentration required to produce 50% inhibition (i.e. IC50) of ^45Ca^2+ uptake to sarcoplasmic reticulum (SR) vesicles prepared from rabbit skeletal muscle by the method of De Meis and Hasselbach (J. Biol. Chem., 246: 4759-4763, 1971). The ^45Ca^2+ uptake assay was as described previously (Christensen, et al., FEBS, 335: 345-348, 1993), with the following modifications: 5 μg/ml of SR protein was incubated at 25EC and free Ca^2+ adjusted to 100 nM using 4 min. uptake time. Under these conditions, Ca^2+ could proceed linearly with time for at least 8 minutes. Measurements of Ca^2+ within TSU cells was determined as described previously (Lin et al., The Prostate, 33:201-207, 1997).
The IC50 results are mean (n=3)±standard error. The LC50 results are mean (n=5)±standard error. The entry “ND” stands for “not determined”. Clonogenic survival not determined above 10 μM for dBTG. Analogs with −boc have a t-butoxycarbonyl (boc) protected amino group.

[8] = biological target: sarcoplasmic reticulum (SR) and endoplasmic reticulum (ER) Ca2+-ATPase (SERCA) pump; details: read-out: apparent dissociation constant; cited from earlier work
[9] = PSA substrate, PSA assay buffer pH 7.8, Lineweaver-Burke

Molecule: Mu-His-Ser-Ser-Lys-Leu-Gln-doxorubicin (Mu-HSSKLQ-Dox; listed as Homo sapiens) [doxorubicin prodrug without Leu linker; b202 describes it as acetyl-capped]
- number of TSU-Pr1 colonies, treatment with 30 μg/ml enzymatically active PSA (TSU-Pr1 cells; with 30 μg/ml PSA): 110 colonies
- number of TSU-Pr1 colonies, treatment without PSA (TSU-Pr1 cells; without PSA): 122 colonies

Molecule: Cc1cc(=O)oc2cc(NC(=O)[C@H](CCC(N)=O)NC(=O)[C@H](CC(C)C)NC(=O)[C@H](CCCCN)NC(=O)[C@H](CO)NC(=O)[C@H](CO)NC(=O)[C@H](Cc3c[nH]cn3)NC(=O)[C@H](CCC(=O)O)NC(=O)N3CCOCC3)ccc12 [EHSSKLQ, Glu-His-Ser-Ser-Lys-Leu-Gln] ({Morpholide-CO}-EHSSKLQ-{AMC})
- Picomoles of substrate cleaved/minute/200 pmoles of indicated protease: PSA ([1]; 0.2 mM substrate, PSA assay buffer pH 7.8, room temperature): 31.6 picomoles/minute/200 pmoles pr
- picomoles of peptide cleaved/min/200 picomoles protease: PSA ([1]; 0.2 mM substrate, pH 7.8, SKLQ, KLQ, LQ in 1.4% acetonitrile/buffer, Q-AMC in 0.2% formic acid/buffer): 31.6 picomoles/min/200 picomoles pr
- Kcat [1, 9]: 0.02 s⁻¹
- Km [1, 9]: 1160 µM
- Picomoles of substrate cleaved/minute/200 pmoles of indicated protease: Thromb (thrombin): UD (at most, 0.1 pmole of substrate cleavage per minute per 200 pmole protease took place)
- Picomoles of substrate cleaved/minute/200 pmoles of indicated protease: Trypsin (Trypsin): UD (at most, 0.1 pmole of substrate cleavage per minute per 200 pmole protease took place)
- Picomoles of substrate cleaved/minute/200 pmoles of indicated protease: Kallik (human kallikrein, hK1): UD (at most, 0.1 pmole of substrate cleavage per minute per 200 pmole protease took place)
- Picomoles of substrate cleaved/minute/200 pmoles of indicated protease: Elastase (Elastase): UD (at most, 0.1 pmole of substrate cleavage per minute per 200 pmole protease took place)
- Picomoles of substrate cleaved/minute/200 pmoles of indicated protease: TPA [2]: UD (at most, 0.1 pmole of substrate cleavage per minute per 200 pmole protease took place)
- Picomoles of substrate cleaved/minute/200 pmoles of indicated protease: Plasmin (Plasmin): UD (at most, 0.1 pmole of substrate cleavage per minute per 200 pmole protease took place)
- Picomoles of substrate cleaved/minute/200 pmoles of indicated protease: Urokin (urokinase): UD (at most, 0.1 pmole of substrate cleavage per minute per 200 pmole protease took place)
- Picomoles of substrate cleaved/minute/200 pmoles of indicated protease: Chymo (chymotrypsin): UD (at most, 0.1 pmole of substrate cleavage per minute per 200 pmole protease took place)
- picomles AMC released/minute: Calf [3]: UD (not more than 0.01 picomole of substrate per minute was cleaved)
- picomles AMC released/minute: Fetal Calf [3]: UD (not more than 0.01 picomole of substrate per minute was cleaved)
- picomles AMC released/minute: Goat [3]: UD (not more than 0.01 picomole of substrate per minute was cleaved)
- picomles AMC released/minute: Mouse [3]: 2.17 picomoles/minute
- picomles AMC released/minute: Rat [3]: 0.06 picomoles/minute
- picomles AMC released/minute: Human ([3]; human serum 100%): UD (not more than 0.01 picomole of substrate per minute was cleaved)
- picomoles of peptide cleaved/min/200 picomoles protease: Cath B (Cathepsin B): 4.3 picomoles/min/200 picomoles pr
- picomoles of peptide cleaved/min/200 picomoles protease: Cath D (Cathepsin D): 2.2 picomoles/min/200 picomoles pr
- picomoles of peptide cleaved/min/200 picomoles protease: Cath C (Cathepsin C): UD (at most, 0.1 pmole of substrate cleavage per minute per 200 pmole protease took place)
- picomoles of peptide cleaved/min/200 picomoles protease: Esterase (porcine liver esterase): UD (at most, 0.1 pmole of substrate cleavage per minute per 200 pmole protease took place)

Molecule: C/C=C(/C)C(=O)O[C@H]1C(C)=C2[C@H]([C@@H]1OC(=O)CCCCCCC)[C@@](C)(OC(C)=O)C[C@H](OC(=O)CCC)[C@@]1(O)[C@H]2OC(=O)[C@@]1(C)O [TG, Thapsigargin]
- LD50 (cytotoxic activity) [4]: < 0.1 µM
- solubility in water [5]: poorly soluble in water
- CC50 [6]: 30 ± 4 nM
- IC50 [7]: 5 ± 0.3 nM
- Kd [8]: ≤ 0.0022 nM

Molecule: C/C=C(/C)C(=O)O[C@H]1C(C)=C2[C@H]([C@@H]1OC(=O)CCCCCCC)[C@@](C)(OC(C)=O)C[C@H](O)[C@@]1(O)[C@H]2OC(=O)[C@@]1(C)O [dBTG, 8-O-debutanoylthapsigargin, reference compound]
- LD50 (cytotoxic activity) [4]: > 50 µM
- CC50 [6]: > 10000 nM
- IC50 [7]: 149 ± 21 nM
